Results on one sequence are retold here after patent publication US9169315B2, “Heparin cofactor II fragments with anti-inflammatory and anti-coagulant activity” (XIMMUNE AB, priority 2009, dated 2015).

No end group written: not given here.

This experiment has as its system P. aeruginosa. In words: Electron microscopy of peptide-treated bacteria. Conditions: 30 μM, 2 h, 37° C. It is filed as cell-based. How it is done: (A) Permeabilizing effects of peptides on E. coli. Bacteria were incubated with the NLF20 and permeabilization was assessed using the impermeant probe FITC. (B) Electron microscopy analysis. P. aeruginosa and S. aureus bacteria were incubated for 2 h at 37° C. with 30 μM of NLF20 and visualized by negative staining. LL-37 is shown for comparison. Scale bar represents 1 μm. Control; Buffer control.

As to NLFRKLTHRLFRRNFGYTLR [NLF20], the “Membrane damage by electron microscopy” value is “extensive membrane damage”.
